Results as given in patent publication US8883759B2, “Anti-tumor effect potentiator” (Taiho Pharmaceutical Co., Ltd., priority 2009, dated 2014).
pIC50: −log10 of the molar value.

What was measured:
human dUTPase = human dUTPase (Homo sapiens (Human), UniProt P33316); experiment: Human dUTPase inhibitory effect ([5-3H]dUMP production from [5-3H]dUTP); assay type: biochemical
Procedure: The inhibitory activity of these compounds of the present invention against human dUTPase was determined by measuring the production of [5-^3H]deoxyuridine monophosphate (hereinafter, referred to as [5-^3H]dUMP) from [5-^3H]deoxyuridine triphosphate (hereinafter, referred to as [5-^3H]dUTP) according to a method shown below.
Specifically, 0.2 mL in total of a solution containing 0.02 mL of 1 μM dUTP (including 588 Bq/mL [5-^3H]dUTP), 0.05 mL of a 0.2 M Tris buffer solution (pH 7.4), 0.05 mL of 16 mM magnesium chloride, 0.02 mL of 20 mM 2-mercaptoethanol, 0.02 mL of a 1% aqueous solution of fetal bovine serum-derived albumin, 0.02 mL of varying concentrations of test compound solutions or pure water as a control, and 0.02 mL of a solution of human dUTPase, which is expressed in E. coli and then purified, was incubated at 37° C. for 15 minutes. After the incubation, the solution was heated at 100° C. for 1 minute to terminate the reaction, followed by centrifugation at 15000 rpm for 2 minutes. An aliquot (150 μL) of the supernatant obtained by centrifugation was analyzed using an Atlantis dC18 column (manufactured by Waters Corp., 4.6×250 mm) and a high-performance liquid chromatograph (manufactured by Shimadzu Corp., Prominence). […]
The inhibitory activity of the test compound was determined according to the formula shown below. […]

[1] = test system: human breast cancer cell line MX-1; experiment: Enhancing activity for anti-tumor effect of TS-1 in nude mice with transplanted MX-1 (Test Example 2); assay type: in vivo, BALB/cA Jcl-nu mice; conditions: 200 mg/kg/day test drug + TS-1 8.3 mg/kg/day, oral, 14 days; MX-1 in nude mice; T/C on day 15 (FIG. 1)
Procedure: A human breast cancer cell line MX-1 was transplanted into the right-sided chest of 5- to 6-week-old male BALB/cA Jcl-nu mice. After transplantation, the major axis (mm) and minor axis (mm) of the tumor were measured, and the tumor volume (TV) was estimated by calculation. Using MiSTAT group separation program, the mice were then divided into individual groups so that the mean TV of each group is to be equal. The date at which mice were divided into the groups (n=5) was defined as day 0.
A test solution for tegafur/gimeracil/oteracil potassium (TS-1, manufactured by Taiho Pharmaceutical Co., Ltd.) single administration group, containing 0.5% hydroxypropylmethyl cellulose, 2.5% dimethylacetamide, 2.5% Tween 80, and 10% Cremophor as final concentrations, was prepared, provided at 8.3 mg/kg/day. The dose of TS-1 was represented by the amount of tegafur (FT). […]
TV on day 15 was measured, and relative tumor volume (RTV) was calculated. Then, T/C (%) was calculated according to a formula described below, and an anti-tumor effect was evaluated. […]

Sequence of human dUTPase (P33316 94-252): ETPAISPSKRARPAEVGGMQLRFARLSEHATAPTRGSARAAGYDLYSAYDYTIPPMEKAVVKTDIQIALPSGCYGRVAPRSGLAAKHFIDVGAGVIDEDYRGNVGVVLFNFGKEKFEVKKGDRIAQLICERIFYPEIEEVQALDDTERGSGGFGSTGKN

## O=c1ccn(COCCCC2(NS(=O)(=O)c3cccc(OCC4CC4)c3)CC2)c(=O)[nH]1 [Comparative Compound 1, 3-(cyclopropylmethoxy)-N-(1-(3-((2,4-dioxo-3,4-dihydropyrimidin-1(2H)-yl)methoxy)propyl)cyclopropyl)benzenesulfonamide]
Human dUTPase; human dUTPase
  dUTPase inhibitory activity (in words): strong
[1]
  enhancing activity for anti-tumor effect of TS-1: not observed

## CC[C@@H](NS(=O)(=O)CCCn1ccc(=O)[nH]c1=O)c1cccc(OCC2CC2)c1 [Compound 19, (R)—N-(1-(3-(cyclopropylmethoxy)phenyl)propyl)-3-(2,4-dioxo-3,4-dihydropyrimidin-1(2H)-yl)propane-1-sulfonamide]
Human dUTPase; concentration inhibiting 50% of [5-3H]dUMP production by human dUTPase, 37° C., 15 minutes
  pIC50: 6.21
